These are literature values, as cited in paper PMC4781755 (Biochemistry, 2015).

One series concerns hNaDC1. The settings on record: read-out: Km for succinate, hNaDC1.
Another series relates to hNaDC3. The settings on record: read-out: Km for succinate, hNaDC3.

On to `O=C(O)CCC(=O)O` [succinate], for which the Km (in general, the concentration of substrate that gives half-maximal velocity) is 500 µM with hNaDC1 and approximately 20 µM in the series on hNaDC3.
For the molecule `O=C(O)CC(O)(CC(=O)O)C(=O)O` [citrate], in the series on vcINDY, the “inhibition of vcINDY” value is “weak inhibitor”.
